Results on one compound are retold here after paper PMC4676711 (ACS chemical neuroscience, 2015).

The data set can be described thus: plasma stability. Type of data set: in vitro ADME. To be noted: mouse, plasma (K2 EDTA).

In turn, `CC1CC(OC(=O)C(O)c2ccccc2)CC(C)(C)N1C` (stereo not shown) [Eucatropine] registered a fraction remaining at 0.5 h, 1 μM of 43.2%.
